Type in all cases: cell-based
Experiment [1] relates to human CD47 fused to LID degron domain. In words: LID degron CD47 degradation in EFS-CD47-LID transduced iPSCs, flow cytometry. The following applies: 0-1,000 nM Shield-1 for 24 hours, increasing doses. From the text: In the LID system, the protein of interest (POI e.g., CD47) is fused to a LID degron domain (also referred to as “LID domain” or “LID degron”). The LID degron domain includes the FK506- and rapamycin-binding protein (FKBP) and a peptide degron (e.g., TRGVEEVAEGVVLLRRRGN) fused to the C-terminus of the FKBP (FIG. 5). […] The peptide degron is capable of binding to the FKBP active site and is not detected by cellular degradation proteins when sequestered in the active site, thus rendering it a cryptic degron. In the absence of Shield-1, a small molecule, the POI-LID fusion protein is stable. When present, Shield-1 binds tightly to FKBP, thereby displacing the peptide degron and inducing rapid degradation of the LID and any fused partner protein (e.g., CD47). […]
(§1) The EFS-CD47-LID transduced cells, EFS-CD47 transduced cells, and wild-type control cells were incubated in the presence of 0-1,000 nM of Shield-1 for 24 hours and CD47 expression was assessed using flow cytometry.
In general terms: Flow cytometry measures light scatter and fluorescence of single cells or particles in a stream.

Experiment [2] concerns human CD47. Put plainly: CD47 expression in control EFS-CD47 transduced and wild-type iPSCs with Shield-1.
Excerpt: To assess the ability of the LID system to promote CD47 degradation, expression constructs were made containing the following expression cassettes: a) an EF1a core promoter (EFS) operably linked to a human CD47 gene fused to a nucleic acid encoding the LID degron domain (EFS-CD47-LID, see FIG. 6, top); and b) a control containing the EFS promoter operable linked to the human CD47 gene alone (EFS-CD47). iPSCs were transduced with either the EFS-CD47-LID expression cassette or control EFS-CD47 expression cassette by lentiviral transduction.
as §1

Experiment [3] has as its system human CD47 fused to SMASH tag. In words: SMASH degron CD47 degradation in EFS-SMASH-CD47 transduced iPSCs, flow cytometry. The following applies: 0-10 μM asunaprevir for 48 hours, increasing doses. An excerpt: Small-molecule assisted shutoff, or SMASH, is a system using the hepatitis C virus (HCV) nonstructural protein 3 (NS3) protease and elements in the NS4A protein to effectively shut off expression of a CD47 protein fused to a SMASH-tag with clinically tested HCV protease inhibitors (FIG. 2). In the absence of protease inhibitor (asunaprevir), a cryptic degron sequence is excised, leading to an unmodified gene product. By addition of asunaprevir, the NS3 protease is inhibited, leading to the degradation of newly synthesized CD47 proteins fused to the degron sequence.
CD47 expression analysis: After incubation, cells are washed and stained with an anti-CD47 antibody conjugated to Alexa-647 (Biolegend) to detect surface expression of CD47. More specifically, 1×10^6 cells are harvested and resuspended in 100 μl cell staining-buffer (PBS, 0.1% BSA, 0.1% sodium azide) and incubated with 5 μl Alexa-Fluor 647 labelled anti-CD47 antibody for 30 min on ice. Cells are washed in cell staining buffer and subsequently analyzed by flow cytometry. […]

For experiment [4], the system named is human CD47. Put plainly: CD47 expression in control EFS-CD47 transduced and wild-type iPSCs with asunaprevir. The following applies: for expression of CD47: 0-10 μM asunaprevir for 48 hours. As for the experimental part:
CD47 expression analysis: After incubation, cells are washed and stained with an anti-CD47 antibody conjugated to Alexa-647 (Biolegend) to detect surface expression of CD47. More specifically, 1×10^6 cells are harvested and resuspended in 100 μl cell staining-buffer (PBS, 0.1% BSA, 0.1% sodium azide) and incubated with 5 μl Alexa-Fluor 647 labelled anti-CD47 antibody for 30 min on ice. Cells are washed in cell staining buffer and subsequently analyzed by flow cytometry.
To assess the ability of the SMASH system to promote CD47 degradation, expression constructs were made containing the following expression cassettes: a) an EF1 a core promoter (EFS) operably linked to a human CD47 gene fused to a nucleic acid encoding a SMASH tag (EFS-CD47-SMASH, see FIG. 4, top); and b) a control containing the EFS promoter operably linked to the human CD47 gene alone (EFS-CD47). iPSCs were transduced with either the EFS-SMASH-CD47 expression cassette or control EFS-CD47 expression cassette by lentiviral transduction. The EFS-SMASH-CD47 transduced cells, EFS-CD47 transduced cells, and wild-type control cells were incubated in the presence of 0-10 μM of asunaprevir for 48 hours and CD47 expression was assessed using flow cytometry, as explained above.

The subject of experiment [5] is EFS-CD-CD47 transduced cells. Put plainly: Cytosine deaminase safety switch: killing of transduced iPSCs by 5-fluorocytosine. The following applies: 0.01-1000 μM 5-FC; increasing concentrations; FIG. 16 (middle). An excerpt: To assess the ability of cytosine deaminase to induce cell death in an […] manner, an EFS-cytosine deaminase (CD)-CD47 bicistronic cassette was transduced into wild type iPSCs by lentiviral viral transduction (see FIG. 16, top). In this cassette, a nucleic acid encoding CD is located upstream of a nucleic acid encoding CD47. A 2A sequence located between the CD and CD47 nucleic acids to ensure the two proteins are separate following translation. An EFS promoter controls expression of CD and CD47.
EFS-CD-CD47 transduced cells and control EFS-CD transduced cells were contacted with 0.01-1000 μM concentrations of 5-fluorocytosine (5-FC) (“5FC”). Cytosine deaminase deaminates 5-FC to toxic 5-fluorouracil (5-FU), thereby killing the cells.

SMILES strings stand for the structures.

As for `CC[C@H](C(=O)N1CCCC[C@H]1C(=O)O[C@H](CCc1ccc(OC)c(OC)c1)c1cccc(OCCN2CCOCC2)c1)c1cc(OC)c(OC)c(OC)c1` [Shield-1], in experiment [1], the “reduction in CD47 expression” value is no less than 50%. In addition, the “expression of CD47” value in the experiment with human CD47 [2] (EFS-CD47 ("CD47 only") cells without LID, 0-1,000 nM for 24 hours) was “generally unaltered”; in the experiment on human CD47 [2] (wildtype ("WT") cells, 0-1,000 nM Shield-1 for 24 hours), “remained at the baseline”. Also, the “off-target effects on CD47 expression” value in the experiment on human CD47 [2] (EFS-CD47 cells, no significant CD47 knockdown, 0-1,000 nM for 24 hours) is “no off-target effects”.

In the case of `C=C[C@@H]1C[C@]1(NC(=O)[C@@H]1C[C@@H](Oc2ncc(OC)c3ccc(Cl)cc23)CN1C(=O)[C@@H](NC(=O)OC(C)(C)C)C(C)(C)C)C(=O)NS(=O)(=O)C1CC1` [asunaprevir], the “reduction in CD47 expression” value in experiment [3] is listed as no less than 50%. Besides, the “expression of CD47” value in the experiment with human CD47 [4] (EFS-CD47 ("CD47 only") cells without SMASH) is “generally unaltered”; in the experiment with human CD47 [4] (wildtype ("WT") cells), “remained at the baseline”. The “off-target effects on CD47 expression” value in the experiment on human CD47 [4] (EFS-CD47 cells, no significant CD47 knockdown, 0-10 μM for 48 hours) was “no off-target effects”.

On to `Nc1nc(=O)[nH]cc1F` [5-FC, 5-fluorocytosine], for which, in experiment [5], the “killing of CD47 expressing EFS-CD-CD47 transduced cells” value was “observed”.

The record behind these values is US20230062612A1, “SAFETY SWITCHES FOR REGULATION OF GENE EXPRESSION” (Sana Biotechnology, Inc., priority 2020, published 2023).
